Test results as given in patent US20220257532A1 (priority 2017, published 2022).
Entries after “also recorded” stand apart in the source; their conditions may differ. Read-outs that look alike come from different tables or passages of the source.

Tests used:
[1] = molecular target: T1, butyrylcholinesterase (BChE, EC3.1.1.8) (Equus caballus, UniProt P81908); assay: In vitro cholinesterase activity assay (Ellman) and enzyme kinetics, BChE; format: biochemical; settings: for SI selectivity index (BChE/AChE): ratio of IC50 BChE/AChE; for Inhibition type Butyrylcholinesterase: Dixon plot and Lineweaver plot; for BChE inhibition / IC50 rank, in words: among the compounds tested
T1 construct: horse serum butyrylcholinesterase (BChE, EC3.1.1.8); purchased Sigma-Aldrich Co. (St. Louis, Mo., USA); host or cells: horse serum
T1 sequence (P81908 whole entry): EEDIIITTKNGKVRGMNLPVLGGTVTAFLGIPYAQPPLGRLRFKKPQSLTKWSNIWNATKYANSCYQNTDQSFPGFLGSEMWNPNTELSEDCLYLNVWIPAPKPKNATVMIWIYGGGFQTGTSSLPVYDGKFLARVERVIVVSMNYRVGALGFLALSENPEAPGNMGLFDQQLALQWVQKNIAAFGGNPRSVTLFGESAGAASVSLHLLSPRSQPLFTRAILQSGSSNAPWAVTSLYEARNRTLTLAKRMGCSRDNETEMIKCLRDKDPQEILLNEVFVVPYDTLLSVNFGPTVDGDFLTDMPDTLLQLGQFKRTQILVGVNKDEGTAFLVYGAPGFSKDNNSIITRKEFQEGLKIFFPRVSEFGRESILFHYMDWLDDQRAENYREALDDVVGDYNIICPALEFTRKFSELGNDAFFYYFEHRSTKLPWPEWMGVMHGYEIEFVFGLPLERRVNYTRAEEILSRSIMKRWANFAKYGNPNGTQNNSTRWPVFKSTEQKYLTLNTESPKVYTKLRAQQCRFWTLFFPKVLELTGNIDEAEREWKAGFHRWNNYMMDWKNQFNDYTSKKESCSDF
Experimental: (§1) The reaction started with the addition of 10 μL of DTNB and 10 μL of Ach or Bch.
(§2) Briefly, the basis for this assay is the hydrolysis of acetylthiocholine by acetylcholinesterase, producing thiocholine that reacts with DTNB. […] Degrees of inhibition were calculated according to […] wherein E and S represent enzyme activities in the presence and absence of a test sample, respectively.
(§3) The compounds of Table 1 were evaluated for anti-Alzheimer activity. In this regard, inhibitory activity against AChE (acetylcholinesterase) and BChE (butyrylcholinesterase), which lyse acetylcholine in the central nervous system, was measured according to the Experimental Method to calculate IC(inhibition concentrations)50 values.

[2] = molecular target: BACE1 (β-secretase, recombinant human enzyme) (Homo sapiens, UniProt P56817); assay: biochemical; format: biochemical; settings: for Inhibition type BACE1: Dixon plot and Lineweaver plot; for BACE1 IC50 compared with quercetin, in words: positive control quercetin
Sequence of BACE1 (β-secretase, recombinant human enzyme) (P56817 46-501): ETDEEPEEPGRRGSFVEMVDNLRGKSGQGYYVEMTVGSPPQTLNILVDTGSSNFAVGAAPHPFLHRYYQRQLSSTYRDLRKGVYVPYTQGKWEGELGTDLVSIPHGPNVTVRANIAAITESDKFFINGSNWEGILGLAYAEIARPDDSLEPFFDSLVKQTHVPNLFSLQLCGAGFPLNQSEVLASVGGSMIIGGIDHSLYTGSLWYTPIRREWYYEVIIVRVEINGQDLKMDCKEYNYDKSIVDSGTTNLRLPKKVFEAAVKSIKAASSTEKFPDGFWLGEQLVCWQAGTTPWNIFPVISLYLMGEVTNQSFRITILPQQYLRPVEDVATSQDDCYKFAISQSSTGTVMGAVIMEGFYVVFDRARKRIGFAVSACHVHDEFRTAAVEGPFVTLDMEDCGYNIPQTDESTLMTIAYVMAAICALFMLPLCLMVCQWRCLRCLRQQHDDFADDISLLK
Experimental: A BACE1 fluorescence resonance energy transfer (FRET) assay kit (β-secretase, recombinant human enzyme) was purchased from Pan Vera Co. (Madison, Wis., USA).
BACE1 is an enzyme promotive of the production of β-amyloid, which destroys neurons. In order to examine the effects on the compounds of Table 1 on the activity of BACE1, IC(inhibition concentrations)50 values were determined by measuring BACE1 activity in vitro according to Experimental Methods.

[3] = test system: NIH3T3 (mouse embryo fibroblast cell-line); assay: MTT cytotoxicity assay, normal cell line; format: cell-based; settings: conclusion from LD50, MTT
Experimental: (§4) Mouse fibroblast cell line NIH3T3 and mouse melanoma cell line B16F10 were separately seeded at a density of 1×10^3 cells/well into 96-well plates and grown in DMEM supplemented with 10% FBS (fetal bovine serum) at 37° C. in a 5% CO2 atmosphere. The cells in each cell were incubated for 24 hours with predetermined concentrations of each of the compounds (pterosin A, pterosin B, pterosin C, pterosin D, pterosin P, pterosin Z, pteroside A, pteroside A2, pteroside B, pteroside C isomers, pteroside D, pteroside N, pteroside P, and pteroside Z) and then for 2 hours with 100 μL of MTT (0.5 mg/ml PBS). After aspiration of the medium from each well, incubation was conducted for 10 min with 100 μL of DMSO. Absorbance at 570 nm was read using a microplate reader (SPCTRA MAX 340PC, Molecular Devices, USA). Absorbance is an index accounting for a number of viable cells and was used to calculate cell proliferation rates according to the following formula. All experiments were conducted three times for reproducibility.
(§5) Cell proliferation rate (%)=OD550 (sample)/OD550 (control)
(§6) The normal cell line NIH3T3 (mouse embryo fibroblast cell-line) and the cancerous cell line B16F10 (mouse melanoma cell-line) were separately grown in 96-well plates and incubated for 48 hours with predetermined concentrations of each of the compounds. After additional incubation with MTT, absorbance at 550 nm was read using a microplate reader. Absorbance is an index accounting for a number of viable cells and was used to calculate cell proliferation rates according to the following formula. All experiments were conducted three times for reproducibility.
(§7) Cell proliferation rate (%)=OD550(sample)/OD550(control)
(§8) Then, LD50 (Lethal Dose 50) values were calculated on the basis of changes in the cell proliferation rate.

[4] = molecular target: T2, acetylcholinesterase (AChE, EC3.1.1.7) (Electrophorus electricus, UniProt O42275); assay: In vitro cholinesterase activity assay (Ellman) and enzyme kinetics, AChE; format: biochemical; settings: for AChE inhibition / IC50 rank, in words: among the compounds tested; for Inhibition type Acetylcholinesterase: Dixon plot and Lineweaver plot
T2 construct: purchased Sigma-Aldrich Co. (St. Louis, Mo., USA)
T2 sequence (O42275 24-633): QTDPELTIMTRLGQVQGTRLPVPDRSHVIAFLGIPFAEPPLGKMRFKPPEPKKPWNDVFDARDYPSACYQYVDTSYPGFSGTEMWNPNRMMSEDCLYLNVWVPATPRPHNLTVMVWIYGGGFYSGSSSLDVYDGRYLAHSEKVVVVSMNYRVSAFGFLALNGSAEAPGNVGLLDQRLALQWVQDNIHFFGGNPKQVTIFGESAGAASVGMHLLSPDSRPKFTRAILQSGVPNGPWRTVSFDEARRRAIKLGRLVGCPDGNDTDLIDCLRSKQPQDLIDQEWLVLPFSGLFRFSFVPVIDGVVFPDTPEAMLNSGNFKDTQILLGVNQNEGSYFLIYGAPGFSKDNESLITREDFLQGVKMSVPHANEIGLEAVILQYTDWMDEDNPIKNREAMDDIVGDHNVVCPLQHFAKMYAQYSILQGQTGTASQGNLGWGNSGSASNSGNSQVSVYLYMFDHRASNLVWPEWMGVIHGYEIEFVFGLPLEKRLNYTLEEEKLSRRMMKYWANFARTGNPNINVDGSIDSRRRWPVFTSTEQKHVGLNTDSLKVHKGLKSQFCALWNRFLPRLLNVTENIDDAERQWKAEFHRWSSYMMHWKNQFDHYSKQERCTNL
Experimental: as §1, §2, §3

[5] = test system: B16F10 (mouse melanoma cell-line); assay: MTT cytotoxicity assay, cancerous cell line; format: cell-based; settings: for LD50 Cancer cell 816F10: MTT, incubated for 48 hours with compound; for toxicity to cancerous cells, in words: conclusion from LD50, MTT
Experimental: as §4, §5, §6, §7, §8

[6] = concentrations up to 125 μM, read-out: IC50 Acetylcholine esterase Mean ± SEM
[7] = concentrations up to 125 μM, read-out: IC50 Butyrylcholine esterase Mean ± SEM

Structure (SMILES) | SI selectivity index (BChE/AChE) [1] | IC50 [2] | Inhibition type BACE1 [2] | BACE1 IC50 compared with quercetin, in words [2] | other results
Cc1cc2c(c(C)c1CCO[C@@H]1OC(CO)[C@@H](O)[C@H](O)C1O)C(=O)[C@](C)(O)C2 (single isomer, unassigned; (-)) [Compound 18, (−)-pteroside N] | 1.7 | – | – | – | –
CC(=O)C1(/C(C)=C\C2=CC(=O)C(C)C2)CC1 (stereo not drawn) [Compound 2, 3-[2-(1-Acetylcyclopropyl)-1-propenyl)-5-methyl-2-cyclopenten-1-one] | 0.83 | 19.4 ± 1.7 µM | mixed type | lower than or similar to that of quercetin | toxicity to normal cells, in words [3]: almost non-toxic; toxicity to normal cells, in words ([3]; listed as compound of Chemical Formula 2): non-toxic; IC50 [4]: 87.7 ± 1.6 µM; AChE inhibition / IC50 rank, in words [4]: highest; LD50 Cancer cell 816F10 [5]: 688 µM; toxicity to cancerous cells, in words [5]: slightly toxic; IC50 [1]: 72.9 ± 0.73 µM
Cc1cc2c(c(C)c1CCO)C(=O)[C@](C)(CO)C2 [Compound 3, (2S)-pterosin A] | 12 | 64.9 ± 5.1 µM | – | – | IC50 [4, 6]: 88.7 ± 2.6 µM; LD50 Cancer cell 816F10 [5]: 522 ± 25 µM; toxicity to cancerous cells, in words [5]: slight cytotoxicity; IC50 [1, 7]: 57.3 ± 3.3 µM
Cc1cc2c(c(C)c1CCO)C(=O)[C@H](C)C2 [Compound 4, (2R)-pterosin B] | 3.0 | 18 ± 2 µM | noncompetitive | – | Inhibition type Acetylcholinesterase [4]: mixed; AChE inhibition / IC50 rank, in words [4]: excellent; Inhibition type Butyrylcholinesterase [1]: noncompetitive
Cc1cc2c(c(C)c1CCO)C(=O)[C@@H](C)[C@@H]2O [Compound 6, (2S,3S)-pterosin C] | – | – | – | lower than or similar to that of quercetin | BChE inhibition / IC50 rank, in words [1]: excellent
Cc1cc2c(c(C)c1CCO)C(=O)[C@H](C)[C@H]2O [Compound 7, (2R,3R)-pterosin C] | 0.88 | 15.9 ± 3.5 µM | mixed | lower than or similar to that of quercetin | Inhibition type Acetylcholinesterase [4]: noncompetitive; Inhibition type Butyrylcholinesterase [1]: mixed
Cc1cc2c(c(C)c1CCO)C(=O)[C@@H](C)[C@H]2O [Compound 8, (2S,3R)-pterosin C] | 3.5 | 14.1 ± 1.6 µM | noncompetitive | lower than or similar to that of quercetin | Inhibition type Acetylcholinesterase [4]: mixed; Inhibition type Butyrylcholinesterase [1]: noncompetitive
Cc1cc2c(c(C)c1CCO)C(=O)C(C)(C)[C@@H]2O [Compound 9, (3R)-Pterosin D] | – | 56.3 ± 3.9 µM | – | – | IC50 [1]: > 12 µM; BChE inhibition / IC50 rank, in words [1]: highest
Cc1c(CCO)c(CO)cc2c1C(=O)[C@@H](C)C2 [Compound 10, (2S)-pterosin P] | 3.1 | 40.8 ± 4.1 µM | – | – | –
Cc1cc2c(c(C)c1CCO)C(=O)C(C)(C)C2 [Compound 11, pterosin Z] | 1.7 | 48.7 ± 3.2 µM | – | – | toxicity to normal cells, in words [3]: slightly toxic; LD50 Cancer cell 816F10 [5]: 618 ± 71 µM; toxicity to cancerous cells, in words [5]: slightly toxic
Cc1cc2c(c(C)c1CCO[C@@H]1OC(CO)[C@@H](O)[C@H](O)C1O)C(=O)[C@](C)(CO)C2 (stereo partly drawn) [Compound 12, (2S)-pteroside A] | – | – | – | – | IC50 [1, 7]: 199 ± 0.25 µM
Cc1cc2c(c(C)c1CCO)C(=O)[C@](C)(COC1O[C@H](CO)[C@@H](O)[C@H](O)[C@H]1O)C2 (stereo partly drawn) [Compound 13, (2S)-pteroside A2] | 3.0 | 94.4 ± 4.5 µM | – | – | IC50 [1]: 119 ± 2.5 µM
Cc1cc2c(c(C)c1CCO[C@@H]1OC(CO)[C@@H](O)[C@H](O)C1O)C(=O)[C@H](C)C2 (stereo partly drawn) [Compound 14, (2R)-pteroside B] | – | – | noncompetitive | – | Inhibition type Acetylcholinesterase [4]: mixed; AChE inhibition / IC50 rank, in words [4]: lowest; also recorded: excellent; Inhibition type Butyrylcholinesterase [1]: mixed; BChE inhibition / IC50 rank, in words [1]: excellent; IC50 [1, 7]: 17 µM
Cc1cc2c(c(C)c1CCO[C@@H]1OC(CO)[C@@H](O)[C@H](O)C1O)C(=O)[C@@H](C)[C@H]2O (stereo partly drawn) [Compound 15, (2S,3R)-pteroside C] | 1.4 | – | – | – | IC50 [4, 6]: 9.57 ± 0.32 µM; IC50 [1, 7]: 12 ± 0.14 µM
Cc1cc2c(c(C)c1CCO[C@@H]1OC(CO)[C@@H](O)[C@H](O)C1O)C(=O)[C@H](C)[C@H]2O (stereo partly drawn) [Compound 16, (2R,3R)-pteroside C] | 1.4 | – | mixed | lower than or similar to that of quercetin | AChE inhibition / IC50 rank, in words [4]: excellent; BChE inhibition / IC50 rank, in words [1]: lowest
Cc1cc2c(c(C)c1CCO[C@@H]1OC(CO)[C@@H](O)[C@H](O)C1O)C(=O)C(C)(C)[C@H]2O (stereo partly drawn) [Compound 17, (3S)-pteroside D] | 0.70 | – | mixed | lower than or similar to that of quercetin | –
Cc1c(CCO[C@@H]2OC(CO)[C@@H](O)[C@H](O)C2O)c(CO)cc2c1C(=O)[C@@H](C)C2 (stereo partly drawn) [Compound 19, (2S)-pteroside P] | 0.57 | – | – | – | –
Cc1cc2c(c(C)c1CCO[C@@H]1OC(CO)[C@@H](O)[C@H](O)C1O)C(=O)C(C)(C)C2 (stereo partly drawn) [Compound 20, pteroside Z] | 0.24 | – | – | – | BChE inhibition / IC50 rank, in words [1]: excellent
